Laboratory results published in article PMC5218480 (PLoS ONE, 2017).

Test system: MV-4-11 cells
Experiment: Gene expression microarray analysis (Affymetrix PrimeView) and GSEA
Format: cell-based, human
Design: RFU PODN (11730768_x_at) / Fold change /veh PODN (11730768_x_at) / RFU LINC00158 (11744669_a_at) / Fold change /veh LINC00158 (11744669_a_at) / RFU DUSP10 (11751237_a_at) / Fold change /veh DUSP10 (11751237_a_at) / RFU ID3 (11757404_x_at) / Fold change /veh ID3 (11757404_x_at) / RFU PLEKHG5 (11737974_s_at) / Fold change /veh PLEKHG5 (11737974_s_at) / RFU LRRC4B (11730491_at) / Fold change /veh LRRC4B (11730491_at) / RFU GIMAP4 (11747438_a_at) / Fold change /veh GIMAP4 (11747438_a_at) / RFU KRT8 (11758183_x_at) / Fold change /veh KRT8 (11758183_x_at) / RFU CNN1 (11734310_a_at) / Fold change /veh CNN1 (11734310_a_at) / RFU VPS37D (11726825_at) / Fold change /veh VPS37D (11726825_at) / RFU C10orf10 (11716522_x_at) / Fold change /veh C10orf10 (11716522_x_at) / RFU KIR2DL2 /// KIR2DL4 /// KIR2DL5A /// KIR2DL5B /// KIR2DS1 /// KIR2DS2 /// KIR2DS3 /// KIR2DS4 /// KIR3DL3 /// KIR3DL3 /// KIR3DS1 (11738374_at) / Fold change /veh KIR2DL2 /// KIR2DL4 /// KIR2DL5A /// KIR2DL5B /// KIR2DS1 /// KIR2DS2 /// KIR2DS3 /// KIR2DS4 /// KIR3DL3 /// KIR3DL3 /// KIR3DS1 (11738374_at) / RFU C1QL1 (11718748_at) / Fold change /veh C1QL1 (11718748_at) / RFU TMPRSS4 (11747572_a_at) / Fold change /veh TMPRSS4 (11747572_a_at) / RFU HAMP (11756126_x_at) / Fold change /veh HAMP (11756126_x_at) / RFU RNFT2 (11725882_a_at) / Fold change /veh RNFT2 (11725882_a_at) / RFU NR4A2 (11747474_a_at) / Fold change /veh NR4A2 (11747474_a_at) / RFU ABCC12 (11746883_a_at) / Fold change /veh ABCC12 (11746883_a_at) / RFU TMEM136 (11760407_x_at) / Fold change /veh TMEM136 (11760407_x_at) / RFU CLDN22 /// WWC2 (11732394_at) / Fold change /veh CLDN22 /// WWC2 (11732394_at) / RFU HLA-DPB1 (11760878_x_at) / Fold change /veh HLA-DPB1 (11760878_x_at) / RFU SPINT1 (11716480_a_at) / Fold change /veh SPINT1 (11716480_a_at) / RFU GAP43 (11754022_s_at) / Fold change /veh GAP43 (11754022_s_at) / RFU A4GNT (11735810_at) / Fold change /veh A4GNT (11735810_at) / RFU PRB3 (11715151_x_at) / Fold change /veh PRB3 (11715151_x_at) / RFU TUBB4B (11761932_at) / Fold change /veh TUBB4B (11761932_at) / RFU CAPN14 (11732068_a_at) / Fold change /veh CAPN14 (11732068_a_at) / RFU TMCC2 (11721928_a_at) / Fold change /veh TMCC2 (11721928_a_at) / RFU IRGQ (11745062_a_at) / Fold change /veh IRGQ (11745062_a_at) / RFU FAM174B (11720279_a_at) / Fold change /veh FAM174B (11720279_a_at) / RFU TMPRSS4 (11748680_a_at) / Fold change /veh TMPRSS4 (11748680_a_at) / RFU FAM212B (11763350_a_at) / Fold change /veh FAM212B (11763350_a_at) / RFU PLEKHG5 (11743358_a_at) / Fold change /veh PLEKHG5 (11743358_a_at) / RFU ZSCAN30 (11745921_a_at) / Fold change /veh ZSCAN30 (11745921_a_at) / RFU CMKLR1 (11741424_a_at) / Fold change /veh CMKLR1 (11741424_a_at) / RFU LOC101060620 /// MAPK8IP1 (11723275_at) / Fold change /veh LOC101060620 /// MAPK8IP1 (11723275_at) / RFU SPTSSB (11747773_x_at) / Fold change /veh SPTSSB (11747773_x_at) / RFU PRSS12 (11739890_at) / Fold change /veh PRSS12 (11739890_at) / RFU BIN1 (11741810_x_at) / Fold change /veh BIN1 (11741810_x_at) / RFU WNT11 (11732464_a_at) / Fold change /veh WNT11 (11732464_a_at) / RFU C10orf10 (11716521_a_at) / Fold change /veh C10orf10 (11716521_a_at) / RFU C5orf56 (11738089_at) / Fold change /veh C5orf56 (11738089_at) / RFU CYB561 (11721691_x_at) / Fold change /veh CYB561 (11721691_x_at) / RFU ANKRD19P (11752326_a_at) / Fold change /veh ANKRD19P (11752326_a_at) / RFU OR2T12 /// OR2T33 /// OR2T8 (11738714_s_at) / Fold change /veh OR2T12 /// OR2T33 /// OR2T8 (11738714_s_at) / RFU VCAN (11748164_a_at) / Fold change /veh VCAN (11748164_a_at) / RFU JSRP1 (11732532_at) / Fold change /veh JSRP1 (11732532_at) / RFU KRTAP10-11 (11738290_x_at) / Fold change /veh KRTAP10-11 (11738290_x_at) / RFU MYO3A (11730013_a_at) / Fold change /veh MYO3A (11730013_a_at) / RFU EBF3 (11725865_a_at) / Fold change /veh EBF3 (11725865_a_at) / RFU CAMK2N1 (11719241_x_at) / Fold change /veh CAMK2N1 (11719241_x_at) / RFU C5orf56 (11738088_a_at) / Fold change /veh C5orf56 (11738088_a_at) / RFU OLFML3 (11715873_a_at) / Fold change /veh OLFML3 (11715873_a_at) / RFU LOC100653217 /// NTM (11731650_a_at) / Fold change /veh LOC100653217 /// NTM (11731650_a_at) / RFU MAPK11 (11762145_a_at) / Fold change /veh MAPK11 (11762145_a_at) / RFU FIZ1 (11724087_x_at) / Fold change /veh FIZ1 (11724087_x_at) / RFU OASL (11726364_x_at) / Fold change /veh OASL (11726364_x_at) / RFU SOX15 (11748057_x_at) / Fold change /veh SOX15 (11748057_x_at) / RFU CD79A (11719716_a_at) / Fold change /veh CD79A (11719716_a_at) / RFU HIST1H1D (11736915_at) / Fold change /veh HIST1H1D (11736915_at) / RFU CASKIN2 (11723855_a_at) / Fold change /veh CASKIN2 (11723855_a_at) / RFU LOC730098 (11760151_x_at) / Fold change /veh LOC730098 (11760151_x_at) / RFU OR4N2 (11742367_at) / Fold change /veh OR4N2 (11742367_at) / RFU PRRT2 (11749266_a_at) / Fold change /veh PRRT2 (11749266_a_at) / RFU SNX32 (11753110_a_at) / Fold change /veh SNX32 (11753110_a_at) / RFU CDHR5 (11726645_a_at) / Fold change /veh CDHR5 (11726645_a_at) / RFU RCAN1 (11760418_a_at) / Fold change /veh RCAN1 (11760418_a_at) / RFU FAM167A (11723789_a_at) / Fold change /veh FAM167A (11723789_a_at) / RFU FAM26E (11764081_at) / Fold change /veh FAM26E (11764081_at) / RFU ISYNA1 (11749810_s_at) / Fold change /veh ISYNA1 (11749810_s_at) / RFU ACY1 (11761880_at) / Fold change /veh ACY1 (11761880_at) / RFU 11764098_at / Fold change /veh 11764098_at / RFU SAMD14 (11745864_x_at) / Fold change /veh SAMD14 (11745864_x_at) / RFU NPB (11741838_a_at) / Fold change /veh NPB (11741838_a_at) / RFU TMPRSS6 (11731388_a_at) / Fold change /veh TMPRSS6 (11731388_a_at) / RFU KRTAP10-2 (11738614_at) / Fold change /veh KRTAP10-2 (11738614_at) / RFU ARHGAP8 /// PRR5-ARHGAP8 (11727945_x_at) / Fold change /veh ARHGAP8 /// PRR5-ARHGAP8 (11727945_x_at) / RFU KRTAP5-7 /// NADSYN1 (11734609_at) / Fold change /veh KRTAP5-7 /// NADSYN1 (11734609_at) / RFU RASL12 (11751679_a_at) / Fold change /veh RASL12 (11751679_a_at) / RFU CDKN2B (11736163_a_at) / Fold change /veh CDKN2B (11736163_a_at) / RFU PRF1 (11729649_at) / Fold change /veh PRF1 (11729649_at) / RFU, ZNF638 /// ZNF638-IT1 / Fold change vs veh, ZNF638 /// ZNF638-IT1 / RFU, PANK3 / Fold change vs veh, PANK3 / RFU, SH3YL1 / Fold change vs veh, SH3YL1 / RFU, ZEB2 / Fold change vs veh, ZEB2 / RFU, NRIP1 / Fold change vs veh, NRIP1 / RFU, PTTG1IP / Fold change vs veh, PTTG1IP / RFU, CAPN2 / Fold change vs veh, CAPN2 / RFU, MED14 / Fold change vs veh, MED14 / RFU, SNORA58 / Fold change vs veh, SNORA58 / RFU, C1orf63 / Fold change vs veh, C1orf63 / RFU, LRRFIP1 / Fold change vs veh, LRRFIP1 / RFU, NDUFAF7 / Fold change vs veh, NDUFAF7 / RFU, SLC12A2 / Fold change vs veh, SLC12A2 / RFU, IBTK / Fold change vs veh, IBTK / RFU, ESF1 / Fold change vs veh, ESF1 / Fold change vs veh, TMEM50B / RFU, TAOK1 / Fold change vs veh, TAOK1 / RFU, ACBD3 / Fold change vs veh, ACBD3 / RFU, TMA16 / Fold change vs veh, TMA16 / RFU, RWDD3 / Fold change vs veh, RWDD3 / RFU, BCAT1 / Fold change vs veh, BCAT1 / RFU, EDEM3 / Fold change vs veh, EDEM3 / RFU, TMEM33 / Fold change vs veh, TMEM33 / RFU, WDR75 / Fold change vs veh, WDR75 / RFU, AHCTF1 / Fold change vs veh, AHCTF1 / RFU, TFRC / Fold change vs veh, TFRC / RFU, ZDHHC17 / Fold change vs veh, ZDHHC17 / RFU, NOM1 / Fold change vs veh, NOM1 / RFU, ARL8B / Fold change vs veh, ARL8B / RFU, ZBTB11 / Fold change vs veh, ZBTB11 / RFU, TAMM41 / Fold change vs veh, TAMM41 / RFU, KIAA1704 /// LOC100996395 / Fold change vs veh, KIAA1704 /// LOC100996395 / RFU, ING1 / Fold change vs veh, ING1 / RFU, TRMT61B / Fold change vs veh, TRMT61B / RFU, FUBP3 / Fold change vs veh, FUBP3 / RFU, TP53 / Fold change vs veh, TP53 / RFU, TNKS2 / Fold change vs veh, TNKS2 / RFU, ZFP14 / Fold change vs veh, ZFP14 / RFU, ACTR2 / Fold change vs veh, ACTR2 / RFU, PPP3R1 / Fold change vs veh, PPP3R1 / RFU, PIK3R1 / Fold change vs veh, PIK3R1 / RFU, HNRNPA1 / Fold change vs veh, HNRNPA1 / RFU, RNF170 / Fold change vs veh, RNF170 / RFU, ZNF28 / Fold change vs veh, ZNF28 / RFU, RNGTT / Fold change vs veh, RNGTT / RFU, OGT / Fold change vs veh, OGT / RFU, BRD1 / Fold change vs veh, BRD1 / RFU, MARS / Fold change vs veh, MARS / RFU, ZNF655 / Fold change vs veh, ZNF655 / RFU, FAHD1 / Fold change vs veh, FAHD1 / RFU, BDP1 / Fold change vs veh, BDP1 / RFU, LRRCC1 / Fold change vs veh, LRRCC1 / RFU, ARID1A / Fold change vs veh, ARID1A / RFU, ZNF146 / Fold change vs veh, ZNF146 / RFU, ZNF330 / Fold change vs veh, ZNF330 / RFU, GPN3 / Fold change vs veh, GPN3 / RFU, C9orf123 / Fold change vs veh, C9orf123 / RFU, N4BP2L2 / Fold change vs veh, N4BP2L2 / RFU, ARFIP1 / Fold change vs veh, ARFIP1 / RFU, FAM179B / Fold change vs veh, FAM179B / RFU, BCL10 / Fold change vs veh, BCL10 / RFU, UHRF1BP1L / Fold change vs veh, UHRF1BP1L / RFU, BET1 / Fold change vs veh, BET1 / RFU, CNOT2 / Fold change vs veh, CNOT2 / RFU, ZNF268 / Fold change vs veh, ZNF268 / Fold change vs veh, ZNF507 / RFU, DGCR2 / Fold change vs veh, DGCR2 / RFU, WDSUB1 / Fold change vs veh, WDSUB1 / Fold change vs veh, HSP90B1 /// MIR3652 / RFU, ADSS / Fold change vs veh, ADSS / RFU, GK / Fold change vs veh, GK / RFU, ZNF148 / Fold change vs veh, ZNF148 / RFU, TAF9 / Fold change vs veh, TAF9 / RFU, SLC1A5 / Fold change vs veh, SLC1A5 / RFU, SLMO2 / Fold change vs veh, SLMO2 / RFU, ABCC4 / Fold change vs veh, ABCC4 / RFU, LOC101060439 /// RAP1B / Fold change vs veh, LOC101060439 /// RAP1B / RFU, RFX7 / Fold change vs veh, RFX7 / RFU, GTPBP10 / Fold change vs veh, GTPBP10 / RFU, CNEP1R1 / Fold change vs veh, CNEP1R1 / RFU, BIVM-ERCC5 /// ERCC5 / Fold change vs veh, BIVM-ERCC5 /// ERCC5 / RFU, ILF3 / Fold change vs veh, ILF3 / RFU 11762660_at / Fold change /veh 11762660_at / RFU VCAN (11757783_s_at) / Fold change /veh VCAN (11757783_s_at) / RFU DDX43 (11728927_at) / Fold change /veh DDX43 (11728927_at) / RFU KRT8 (11758188_x_at) / Fold change /veh KRT8 (11758188_x_at) / RFU NKD1 (11759106_at) / Fold change /veh NKD1 (11759106_at) / RFU SRD5A1 (11742802_a_at) / Fold change /veh SRD5A1 (11742802_a_at) / RFU TPSAB1 /// TPSB2 (11721975_s_at) / Fold change /veh TPSAB1 /// TPSB2 (11721975_s_at) / RFU GSTM3 (11746129_a_at) / Fold change /veh GSTM3 (11746129_a_at) / RFU IL23R (11737362_x_at) / Fold change /veh IL23R (11737362_x_at) / RFU TMEM51 (11727254_a_at) / Fold change /veh TMEM51 (11727254_a_at) / RFU PIWIL2 (11732686_x_at) / Fold change /veh PIWIL2 (11732686_x_at) / RFU ORM1 (11744905_x_at) / Fold change /veh ORM1 (11744905_x_at) / RFU CCDC152 (11743942_at) / Fold change /veh CCDC152 (11743942_at) / RFU ECM1 (11717891_a_at) / Fold change /veh ECM1 (11717891_a_at) / RFU IL23R (11748794_a_at) / Fold change /veh IL23R (11748794_a_at) / RFU TNFAIP8L3 (11732012_x_at) / Fold change /veh TNFAIP8L3 (11732012_x_at) / RFU MBOAT4 (11741988_at) / Fold change /veh MBOAT4 (11741988_at) / RFU 11764193_at / Fold change /veh 11764193_at / RFU TMEM53 (11763286_at) / Fold change /veh TMEM53 (11763286_at) / RFU MAGEB2 (11727129_at) / Fold change /veh MAGEB2 (11727129_at) / RFU TMEM200A (11744735_a_at) / Fold change /veh TMEM200A (11744735_a_at) / RFU CCDC152 (11751479_a_at) / Fold change /veh CCDC152 (11751479_a_at) / RFU FAM211A (11726209_a_at) / Fold change /veh FAM211A (11726209_a_at) / RFU RGS16 (11746705_a_at) / Fold change /veh RGS16 (11746705_a_at) / RFU VCAN (11755009_s_at) / Fold change /veh VCAN (11755009_s_at) / RFU RHOB (11743442_s_at) / Fold change /veh RHOB (11743442_s_at) / RFU RGS16 (11720943_a_at) / Fold change /veh RGS16 (11720943_a_at) / RFU RGS16 (11720944_at) / Fold change /veh RGS16 (11720944_at) / RFU, VPS4B / Fold change vs veh, VPS4B / RFU, CREB1 / Fold change vs veh, CREB1 / RFU, DNAJC13 / Fold change vs veh, DNAJC13 / RFU, GNAQ / Fold change vs veh, GNAQ / RFU, CDK5R1 / Fold change vs veh, CDK5R1 / RFU, ZRANB3 / Fold change vs veh, ZRANB3 / RFU, CUL4A / Fold change vs veh, CUL4A / RFU, CCNY / Fold change vs veh, CCNY / RFU, UFL1 / Fold change vs veh, UFL1 / RFU, COG3 / Fold change vs veh, COG3 / RFU, DIAPH2 / Fold change vs veh, DIAPH2 / RFU, SKA2 / Fold change vs veh, SKA2 / RFU, AFF3 / Fold change vs veh, AFF3 / RFU, LMF1 / Fold change vs veh, LMF1 / RFU, IPO11 / Fold change vs veh, IPO11 / RFU, DFFB / Fold change vs veh, DFFB / RFU, FOXP1 / Fold change vs veh, FOXP1 / RFU, CARD8 / Fold change vs veh, CARD8 / RFU, STRN3 / Fold change vs veh, STRN3 / RFU, ADK / Fold change vs veh, ADK / RFU, RASSF2 / Fold change vs veh, RASSF2 / RFU, WIPF1 / Fold change vs veh, WIPF1 / RFU, LARP1B / Fold change vs veh, LARP1B / RFU, RASA1 / Fold change vs veh, RASA1 / RFU, RB1 / Fold change vs veh, RB1 / RFU, PPFIA1 / Fold change vs veh, PPFIA1 / RFU, MAT2A / Fold change vs veh, MAT2A / RFU, CCT5 / Fold change vs veh, CCT5 / RFU, WDR92 / Fold change vs veh, WDR92 / RFU, CUX1 / Fold change vs veh, CUX1 / RFU, TTC7A / Fold change vs veh, TTC7A / RFU, TMEM135 / Fold change vs veh, TMEM135 / RFU, DEPTOR / Fold change vs veh, DEPTOR / RFU, CPM / Fold change vs veh, CPM / RFU, DNAJB6 / Fold change vs veh, DNAJB6 / RFU, CACNA2D3 / Fold change vs veh, CACNA2D3 / RFU, DTX4 / Fold change vs veh, DTX4 / RFU, TFCP2 / Fold change vs veh, TFCP2 / RFU, GMCL1 /// GMCL1P1 / Fold change vs veh, GMCL1 /// GMCL1P1 / RFU, AEBP2 / Fold change vs veh, AEBP2 / RFU, SNHG1 /// SNORD22 /// SNORD25 /// SNORD26 /// SNORD27 /// SNORD28 /// SNORD29 /// SNORD31 / Fold change vs veh, SNHG1 /// SNORD22 /// SNORD25 /// SNORD26 /// SNORD27 /// SNORD28 /// SNORD29 /// SNORD31 / Fold change (Aza/veh), C12orf56 (ProbeSet 11735607_a_at) / Fold change (ACY-1035/veh), C12orf56 (ProbeSet 11735607_a_at) / Fold change (Aza/veh), FGFR1OP (ProbeSet 11751329_s_at) / Fold change (ACY-1035/veh), FGFR1OP (ProbeSet 11751329_s_at) / Fold change (Aza/veh), VPS36 (ProbeSet 11739960_a_at) / Fold change (ACY-1035/veh), VPS36 (ProbeSet 11739960_a_at) / RFU SYPL1 (11715823_x_at) / Fold change /veh SYPL1 (11715823_x_at) / RFU IGFBP7 (11715501_s_at) / Fold change /veh IGFBP7 (11715501_s_at) / RFU REEP3 (11722064_at) / Fold change /veh REEP3 (11722064_at) / RFU IGLL1 (11728026_x_at) / Fold change /veh IGLL1 (11728026_x_at): dose or concentration left out as unconfirmed
Settings: MV-4-11 cells, 48 hours

## Nc1ncn([C@@H]2O[C@H](CO)[C@@H](O)[C@H]2O)c(=O)n1 [azacitidine]
  Fold change /veh DUSP10 (11751237_a_at): 1.16
